# What was measured:
# Salmonella typhimurium [1] = assay: Antimutagenic activity against 2-aminoanthracene-induced revertant colonies in Salmonella typhimurium TA100 assessed as number of revertant colonies measured cotreatment at 180 uM (reference value: 457.9 +/- 16.74) in presence of mammalian S9 fraction; format: functional, Salmonella enterica subsp. enterica serovar Typhimurium
# Escherichia coli [2] = assay: Antimutagenic activity against 2-aminoanthracene-induced revertant colonies in Escherichia coli WP2uvrA assessed as number of revertant colonies measured pretreatment at 180 uM (reference value: 178.7 +/- 11.8) in presence of mammalian S9 fraction; format: functional
# Salmonella typhimurium [3] = assay: Antimutagenic activity against 2-aminoanthracene-induced revertant colonies in Salmonella typhimurium TA100 assessed as number of revertant colonies measured pretreatment at 18 uM (reference value: 481.3 +/- 5.3) in presence of mammalian S9 fraction; format: functional, Salmonella enterica subsp. enterica serovar Typhimurium
# Escherichia coli [4] = assay: Antimutagenic activity against methyl methansulfonate-induced revertant colonies in Escherichia coli WP2uvrA assessed as number of revertant colonies measured post-treatment at 9 uM (reference value: 726.7 +/- 12.7) in absence of mammalian S9 fraction; format: functional
# Salmonella typhimurium [5] = assay: Antimutagenic activity against 2-aminoanthracene-induced revertant colonies in Salmonella typhimurium TA100 assessed as number of revertant colonies measured pretreatment at 90 uM (reference value: 481.3 +/- 5.3) in presence of mammalian S9 fraction; format: functional, Salmonella enterica subsp. enterica serovar Typhimurium
# Salmonella typhimurium [6] = assay: Antimutagenic activity against sodium azide-induced revertant colonies in Salmonella typhimurium TA100 assessed as number of revertant colonies measured post-treatment at 180 uM (reference value: 1909 +/- 29.7) in absence of mammalian S9 fraction; format: functional, Salmonella enterica subsp. enterica serovar Typhimurium
# Escherichia coli [7] = assay: Antimutagenic activity against 2-aminoanthracene-induced revertant colonies in Escherichia coli WP2uvrA assessed as number of revertant colonies measured cotreatment at 900 uM (reference value: 366 +/- 10.3) in presence of mammalian S9 fraction; format: functional
# Escherichia coli [8] = assay: Antimutagenic activity against 2-aminoanthracene-induced revertant colonies in Escherichia coli WP2uvrA assessed as number of revertant colonies measured pretreatment at 18 uM (reference value: 178.7 +/- 11.8) in presence of mammalian S9 fraction; format: functional
# Salmonella typhimurium [9] = assay: Antimutagenic activity against sodium azide-induced revertant colonies in Salmonella typhimurium TA100 assessed as number of revertant colonies measured post-treatment at 18 uM (reference value: 1909 +/- 29.7) in absence of mammalian S9 fraction; format: functional, Salmonella enterica subsp. enterica serovar Typhimurium
# Salmonella typhimurium [10] = assay: Antimutagenic activity against 4-nitroquinoline N-oxide-induced revertant colonies in Salmonella typhimurium TA98 assessed as inhibition of mutagenicity measured at 90 to 180 uM; format: functional, Salmonella enterica subsp. enterica serovar Typhimurium
# Salmonella typhimurium [11] = assay: Antimutagenic activity against 1,8-dinitropyrene-induced revertant colonies in Salmonella typhimurium TA98 assessed as inhibition of mutagenicity measured at 9 to 18 uM; format: functional, Salmonella enterica subsp. enterica serovar Typhimurium
# Escherichia coli [12] = assay: Antimutagenic activity against 2-aminoanthracene-induced revertant colonies in Escherichia coli WP2uvrA assessed as number of revertant colonies measured post-treatment at 9 uM (reference value: 308 +/- 4) in presence of mammalian S9 fraction; format: functional
# Salmonella typhimurium [13] = assay: Antimutagenic activity against sodium azide-induced revertant colonies in Salmonella typhimurium TA100 assessed as number of revertant colonies measured pretreatment at 180 uM (reference value: 1968 +/- 46.9) in absence of mammalian S9 fraction; format: functional, Salmonella enterica subsp. enterica serovar Typhimurium
# Salmonella typhimurium [14] = assay: Antimutagenic activity against 2-aminoanthracene-induced revertant colonies in Salmonella typhimurium TA100 assessed as number of revertant colonies measured post-treatment at 18 uM (reference value: 642.7 +/- 2.7) in presence of mammalian S9 fraction; format: functional, Salmonella enterica subsp. enterica serovar Typhimurium
# Escherichia coli [15] = assay: Antimutagenic activity against 2-aminoanthracene-induced revertant colonies in Escherichia coli WP2uvrA assessed as number of revertant colonies measured cotreatment at 180 uM (reference value: 366 +/- 10.3) in presence of mammalian S9 fraction; format: functional
# Salmonella typhimurium [16] = assay: Antimutagenic activity against 1-nitropyrene-induced revertant colonies in Salmonella typhimurium TA98NR assessed as inhibition of mutagenicity measured at 9 to 18 uM; format: functional, Salmonella enterica subsp. enterica serovar Typhimurium
# Salmonella typhimurium [17] = assay: Antimutagenic activity against sodium azide-induced revertant colonies in Salmonella typhimurium TA100 assessed as number of revertant colonies measured post-treatment at 900 uM (reference value: 1909 +/- 29.7) in absence of mammalian S9 fraction; format: functional, Salmonella enterica subsp. enterica serovar Typhimurium
# Salmonella typhimurium [18] = assay: Antimutagenic activity against 1-nitropyrene-induced revertant colonies in Salmonella typhimurium TA98NR assessed as inhibition of mutagenicity measured at 900 uM; format: functional, Salmonella enterica subsp. enterica serovar Typhimurium; details: Salmonella enterica
# Salmonella typhimurium [19] = assay: Antimutagenic activity against sodium azide-induced revertant colonies in Salmonella typhimurium TA100 assessed as number of revertant colonies measured cotreatment at 18 uM (reference value: 1588 +/- 55.6) in absence of mammalian S9 fraction; format: functional, Salmonella enterica subsp. enterica serovar Typhimurium
# Salmonella typhimurium [20] = assay: Antimutagenic activity against sodium azide-induced revertant colonies in Salmonella typhimurium TA100 assessed as number of revertant colonies measured post-treatment at 90 uM (reference value: 1909 +/- 29.7) in absence of mammalian S9 fraction; format: functional, Salmonella enterica subsp. enterica serovar Typhimurium
# Salmonella typhimurium [21] = assay: Antimutagenic activity against 2-aminoanthracene-induced revertant colonies in Salmonella typhimurium TA100 assessed as number of revertant colonies measured cotreatment at 90 uM (reference value: 457.9 +/- 16.74) in presence of mammalian S9 fraction; format: functional, Salmonella enterica subsp. enterica serovar Typhimurium
# Escherichia coli [22] = assay: Antimutagenic activity against methyl methansulfonate-induced revertant colonies in Escherichia coli WP2uvrA assessed as number of revertant colonies measured pretreatment at 9 uM (reference value: 466.7 +/- 40.4) in absence of mammalian S9 fraction; format: functional
# Escherichia coli [23] = assay: Antimutagenic activity against methyl methansulfonate-induced revertant colonies in Escherichia coli WP2uvrA assessed as number of revertant colonies measured cotreatment at 180 uM (reference value: 485.3 +/- 17.5) in absence of mammalian S9 fraction; format: functional
# Salmonella typhimurium [24] = assay: Antimutagenic activity against 1-nitropyrene-induced revertant colonies in Salmonella typhimurium TA98 assessed as inhibition of mutagenicity measured at 9 to 18 uM; format: functional, Salmonella enterica subsp. enterica serovar Typhimurium
# Escherichia coli [25] = assay: Antimutagenic activity against methyl methansulfonate-induced revertant colonies in Escherichia coli WP2uvrA assessed as number of revertant colonies measured post-treatment at 90 uM (reference value: 726.7 +/- 12.7) in absence of mammalian S9 fraction; format: functional
# Salmonella typhimurium [26] = assay: Antimutagenic activity against 2-nitrofluorene-induced revertant colonies in Salmonella typhimurium TA98 assessed as inhibition of mutagenicity measured at 900 uM; format: functional, Salmonella enterica subsp. enterica serovar Typhimurium; details: Salmonella enterica
# Escherichia coli [27] = assay: Antimutagenic activity against methyl methansulfonate-induced revertant colonies in Escherichia coli WP2uvrA assessed as number of revertant colonies measured pretreatment at 900 uM (reference value: 466.7 +/- 40.4) in absence of mammalian S9 fraction; format: functional
# Escherichia coli [28] = assay: Antimutagenic activity against methyl methansulfonate-induced revertant colonies in Escherichia coli WP2uvrA assessed as number of revertant colonies measured pretreatment at 90 uM (reference value: 466.7 +/- 40.4) in absence of mammalian S9 fraction; format: functional
# Escherichia coli [29] = assay: Antimutagenic activity against methyl methansulfonate-induced revertant colonies in Escherichia coli WP2uvrA assessed as number of revertant colonies measured pretreatment at 18 uM (reference value: 466.7 +/- 40.4) in absence of mammalian S9 fraction; format: functional
# Escherichia coli [30] = assay: Antimutagenic activity against methyl methansulfonate-induced revertant colonies in Escherichia coli WP2uvrA assessed as number of revertant colonies measured cotreatment at 900 uM (reference value: 485.3 +/- 17.5) in absence of mammalian S9 fraction; format: functional
compound,measurement,setting,value
CCCCCC/C(C=O)=C\c1ccccc1,Activity,Salmonella typhimurium [1],404
same,Activity,Escherichia coli [2],147
same,Activity,Salmonella typhimurium [3],453.3
same,Activity,Escherichia coli [4],528
same,Activity,Salmonella typhimurium [5],454.7
same,Activity,Salmonella typhimurium [6],1771
same,Activity,Escherichia coli [7],293.5
same,Activity,Escherichia coli [8],166.7
same,Activity,Salmonella typhimurium [9],1867
same,inhibition (INH),Salmonella typhimurium [10],25%
same,inhibition (INH),Salmonella typhimurium [11],<25%
same,Activity,Escherichia coli [12],294.7
same,Activity,Salmonella typhimurium [13],1797
same,Activity,Salmonella typhimurium [14],530.7
same,Activity,Escherichia coli [15],318.7
same,inhibition (INH),Salmonella typhimurium [16],<25%
same,Activity,Salmonella typhimurium [17],1671
same,inhibition at 900 µM,Salmonella typhimurium [18],> 40%
same,Activity,Salmonella typhimurium [19],1501
same,Activity,Salmonella typhimurium [20],1803
same,Activity,Salmonella typhimurium [21],408.5
same,Activity,Escherichia coli [22],458.7
same,Activity,Escherichia coli [23],448
same,inhibition (INH),Salmonella typhimurium [24],<25%
same,Activity,Escherichia coli [25],517.3
same,inhibition at 900 µM,Salmonella typhimurium [26],> 40%
same,Activity,Escherichia coli [27],365.3
same,Activity,Escherichia coli [28],436
same,Activity,Escherichia coli [29],451.3
same,Activity,Escherichia coli [30],402.7

# — ChEMBL document CHEMBL3351515, “α-Hexylcinnamaldehyde inhibits the genotoxicity of environmental pollutants in the bacterial reverse mutation assay” (2014)
